Reference: ChEMBL document CHEMBL1146032, “Synthesis and biological activity of nociceptin/orphanin FQ(1-13)NH2 analogues modified in 9 and/or 13 position” (Bioorg Med Chem Lett, 2006)
pEC50: −log10 of the molar value. Values joined by “and” are separate entries in the source; they are usually repeats but may differ in a detail not shown here. Identical values can stand only once. Where a SMILES comes first, the peptide text is derived from it. [ ]: non-standard residue; d: D form. Dap = NC[C@H](N)C(=O)O

Assays:
Type in all cases: functional, tissue-based
[1] = target: Nociceptin receptor (Rattus norvegicus) (UniProt P35370); assay: Activity against LFES-evoked contraction of Wistar rat vas deferens relative to N/OFQ(1-13)NH2 in presence of naloxone
Chain of Nociceptin receptor (Rattus norvegicus) (P35370 whole entry): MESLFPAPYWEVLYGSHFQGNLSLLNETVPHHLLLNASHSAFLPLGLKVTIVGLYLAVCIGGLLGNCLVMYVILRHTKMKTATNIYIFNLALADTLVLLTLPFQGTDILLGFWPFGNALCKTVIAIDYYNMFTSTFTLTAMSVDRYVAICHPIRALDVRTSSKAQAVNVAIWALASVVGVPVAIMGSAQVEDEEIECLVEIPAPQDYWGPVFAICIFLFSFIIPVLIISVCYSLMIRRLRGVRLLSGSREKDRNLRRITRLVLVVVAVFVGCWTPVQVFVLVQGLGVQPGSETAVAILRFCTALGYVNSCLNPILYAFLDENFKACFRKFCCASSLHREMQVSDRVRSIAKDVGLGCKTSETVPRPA

[2] = target: Nociceptin receptor (Rattus norvegicus) (UniProt P35370); assay: (§1) Activity against LFES-evoked contraction of Wistar rat vas deferens in presence of naloxone
[3] = target: Nociceptin receptor (Rattus norvegicus) (UniProt P35370); assay: Activity against LFES-evoked contraction of Wistar rat vas deferens relative to N/OFQ(1-13)NH2
[4] = target: Nociceptin receptor (Rattus norvegicus) (UniProt P35370); assay: (§2) Activity against LFES-evoked contraction of Wistar rat vas deferens
Nociceptin receptor [5] = target: T1, Nociceptin receptor (Rattus norvegicus, UniProt P35370); assay: as §1
T1 sequence (P35370 whole entry): as above

Nociceptin receptor [6] = target: T1, Nociceptin receptor; assay: as §2

C[C@H](NC(=O)CNC(=O)[C@@H](NC(=O)[C@H](Cc1ccccc1)NC(=O)CNC(=O)CNC(=O)[C@@H](N)Cc1ccccc1)[C@@H](C)O)C(=O)N[C@@H](CCCNC(=N)N)C(=O)N[C@@H](CCCCN)C(=O)N[C@@H](CO)C(=O)N[C@@H](C)C(=O)N[C@@H](CCCNC(=N)N)C(=O)N[C@@H](CCCCN)C(N)=O
Activity [1]: 1
Emax [2]: -49%
Activity [3]: 1
Emax [4]: -46%

C[C@H](NC(=O)CNC(=O)[C@@H](NC(=O)[C@H](Cc1ccccc1)NC(=O)CNC(=O)CNC(=O)[C@@H](N)Cc1ccccc1)[C@@H](C)O)C(=O)N[C@@H](CCCN=C(N)N)C(=O)N[C@@H](CCCN)C(=O)N[C@@H](CO)C(=O)N[C@@H](C)C(=O)N[C@@H](CCCN=C(N)N)C(=O)N[C@@H](CCCCN)C(N)=O
Activity [1]: 1.56
Emax [2]: -77%
pEC50 (Nociceptin receptor [5]): 6.67
Activity [3]: 2.45
Emax [4]: -71%
pEC50 (Nociceptin receptor [6]): 6.63

C[C@H](NC(=O)CNC(=O)[C@@H](NC(=O)[C@H](Cc1ccccc1)NC(=O)CNC(=O)CNC(=O)[C@@H](N)Cc1ccccc1)[C@@H](C)O)C(=O)N[C@@H](CCCN=C(N)N)C(=O)N[C@@H](CCCN)C(=O)N[C@@H](CO)C(=O)N[C@@H](C)C(=O)N[C@@H](CCCN=C(N)N)C(=O)N[C@@H](CCCN)C(N)=O
Activity [1]: 2.45
Emax [2]: -70%
pEC50 (Nociceptin receptor [5]): 6.01
Activity [3]: 1.41
Emax [4]: -56%
pEC50 (Nociceptin receptor [6]): 6.39

C[C@H](NC(=O)CNC(=O)[C@@H](NC(=O)[C@H](Cc1ccccc1)NC(=O)CNC(=O)CNC(=O)[C@@H](N)Cc1ccccc1)[C@@H](C)O)C(=O)N[C@@H](CCCN=C(N)N)C(=O)N[C@@H](CN)C(=O)N[C@@H](CO)C(=O)N[C@@H](C)C(=O)N[C@@H](CCCN=C(N)N)C(=O)N[C@@H](CN)C(N)=O (H-FGGFTGAR[Dap]SAR[Dap]-NH2)
Activity [1]: 0.06
Emax [2]: -46%
pEC50 (Nociceptin receptor [5]): 5.21
Activity [3]: 0.25
Emax [4]: -54%
pEC50 (Nociceptin receptor [6]): 5.63

C[C@H](NC(=O)CNC(=O)[C@@H](NC(=O)[C@H](Cc1ccccc1)NC(=O)CNC(=O)CNC(=O)[C@@H](N)Cc1ccccc1)[C@@H](C)O)C(=O)N[C@@H](CCCN=C(N)N)C(=O)N[C@@H](CCCCN)C(=O)N[C@@H](CO)C(=O)N[C@@H](C)C(=O)N[C@@H](CCCN=C(N)N)C(=O)N[C@@H](CCCN)C(N)=O
Activity [1]: 0.04
Emax [2]: -33% and -49%
pEC50 (Nociceptin receptor [5]): 5.03 and 4.96
Activity [3]: 0.09 and 0.05
Emax [4]: -60% and -57%
pEC50 (Nociceptin receptor [6]): 5.21 and 4.95
